Experimental findings from ChEMBL document CHEMBL5120922, “Discovery, Optimization, and Evaluation of Potent and Selective PI3Kδ-γ Dual Inhibitors for the Treatment of B-cell Malignancies” (J Med Chem, 2022) are described below.

Series [1] is described as follows: AUC(0 to t) in Sprague-Dawley rat at 5 mg/kg, iv measured upto 24 hrs by LC-MS/MS analysis. Format: ADME, organism-based. Conditions: in vivo. Details: time < 24 hrs, dose 5 mg/kg, route iv.
Series [2] in a line: Clearance in Sprague-Dawley rat at 2 mg/kg, iv measured upto 24 hrs by LC-MS/MS analysis. Format: ADME, organism-based. Conditions: in vivo.
The nature of series [3]: Cmax in Sprague-Dawley rat at 10 mg/kg, po measured upto 24 hrs by LC-MS/MS analysis. Set-up: dose 10 mg/kg, time < 24 hrs, route po. Conditions: in vivo. Format: ADME, organism-based.
The nature of series [4]: Cmax in Sprague-Dawley rat at 5 mg/kg, po measured upto 24 hrs by LC-MS/MS analysis. Set-up: dose 5 mg/kg, time < 24 hrs, route po. It counts as ADME, organism-based. Conditions: in vivo.
Series [5] has as its system SU-DHL-6. As to the kind of experiment: Induction of cell cycle arrest in human SU-DHL-6 cells assessed as accumulation of cells at G0/G1 phase at 0.5 uM incubated for 24 hrs by PI staining based FACScan flow cytometry analysis (reference value: 55.61 %). Format: functional.
Series [6] relates to SU-DHL-6. As to the kind of experiment: Induction of cell cycle arrest in human SU-DHL-6 cells assessed as accumulation of cells at G0/G1 phase at 0.5 uM incubated for 24 hrs in presence of ibrutinib by PI staining based FACScan flow cytometry analysis (reference value: 55.61 %). Format: functional.
Series [7] deals with SU-DHL-6. Description: Induction of apoptosis in human SU-DHL-6 cells assessed as necrotic cells at 1.5 uM incubated for 48 hrs by annexin V-FITC and PI staining based flow cytometry analysis (reference value: 0.32%). Format: functional.
Series [8] can be described thus: Tmax in Sprague-Dawley rat at 5 mg/kg, iv measured upto 24 hrs by LC-MS/MS analysis. It counts as ADME, organism-based. Conditions: in vivo.
A short description of series [9]: Cmax in Sprague-Dawley rat at 2 mg/kg, iv measured upto 24 hrs by LC-MS/MS analysis. It counts as ADME, organism-based. Details: time < 24 hrs, dose 2 mg/kg, route iv. The following applies: in vivo.
The test system of series [10] is SU-DHL-6. As to the kind of experiment: Antitumor activity against human SU-DHL-6 cells xenografted in NOD/SCID mouse assessed as reduction in tumor volume at 10 mg/kg, po measured every 2 days in presence of ibrutinib. Format: functional, organism-based. Conditions: time 2.0 day.
Series [11] relates to SU-DHL-6. As to the kind of experiment: Antiproliferative activity against human SU-DHL-6 cells assessed as cell growth inhibition measured after 72 hrs by MTT assay. Format: functional, cell-based. Conditions: SU-DHL-6, 72 h.

pIC50: −log10 of the molar value. Active and inactive are the calls of the source. No cut-off for these calls is given here.

Consider `C[C@H]1CC[C@@H](c2nc3cccc(Cl)c3c(=O)n2-c2cccnc2)N1c1nc(N)nc(N)c1C#N`, for which the area under the curve AUC(0-t) at 24 h in series [1] is 6810 ng·h/mL. The clearance in [2] was 30.5 mL/min/kg. Also, the peak concentration (Cmax) was found to be 785 ng/mL in series [3], 3640 ng/mL in [4] and 1520 ng/mL in [9]. Moreover, the Activity is 63.84% with SU-DHL-6 [5], 79.73% in the series with SU-DHL-6 [6] and 0.18% in the series on SU-DHL-6 [7]. The Tmax in [8] was determined as 4.8 min. Further, the result with SU-DHL-6 [10] was Active. Further, the negative-log IC50 (pIC50) in the series with SU-DHL-6 [11] was 7.22.
